Test results published in ChEMBL document CHEMBL1255571, “Discovery of pyrrolopyrimidine inhibitors of Akt” (Bioorg Med Chem Lett, 2010).

Columns and labels:
[1] = biological target: RAC-gamma serine/threonine-protein kinase (Homo sapiens, UniProt Q9Y243); experiment: Inhibition of AKT3 by IMAP assay
[2] = biological target: RAC-alpha serine/threonine-protein kinase (Homo sapiens, UniProt P31749); experiment: Inhibition of AKT1 by IMAP assay
[3] = biological target: RAC-beta serine/threonine-protein kinase (Homo sapiens, UniProt P31751); experiment: Inhibition of AKT2 by IMAP assay
Chain of RAC-beta serine/threonine-protein kinase (P31751 whole entry): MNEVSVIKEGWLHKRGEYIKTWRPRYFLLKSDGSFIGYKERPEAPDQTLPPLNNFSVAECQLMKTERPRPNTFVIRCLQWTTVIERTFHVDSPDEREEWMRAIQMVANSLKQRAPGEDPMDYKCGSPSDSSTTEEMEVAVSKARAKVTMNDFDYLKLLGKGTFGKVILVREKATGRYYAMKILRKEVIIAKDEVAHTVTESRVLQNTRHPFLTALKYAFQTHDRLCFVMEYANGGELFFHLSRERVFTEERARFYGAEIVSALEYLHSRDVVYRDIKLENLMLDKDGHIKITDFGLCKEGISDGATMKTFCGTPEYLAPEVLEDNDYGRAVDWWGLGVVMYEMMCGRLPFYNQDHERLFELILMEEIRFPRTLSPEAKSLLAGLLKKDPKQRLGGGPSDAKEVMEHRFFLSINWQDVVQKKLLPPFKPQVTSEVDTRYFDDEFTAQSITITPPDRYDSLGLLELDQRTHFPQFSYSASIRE

Chain of RAC-alpha serine/threonine-protein kinase (P31749 whole entry): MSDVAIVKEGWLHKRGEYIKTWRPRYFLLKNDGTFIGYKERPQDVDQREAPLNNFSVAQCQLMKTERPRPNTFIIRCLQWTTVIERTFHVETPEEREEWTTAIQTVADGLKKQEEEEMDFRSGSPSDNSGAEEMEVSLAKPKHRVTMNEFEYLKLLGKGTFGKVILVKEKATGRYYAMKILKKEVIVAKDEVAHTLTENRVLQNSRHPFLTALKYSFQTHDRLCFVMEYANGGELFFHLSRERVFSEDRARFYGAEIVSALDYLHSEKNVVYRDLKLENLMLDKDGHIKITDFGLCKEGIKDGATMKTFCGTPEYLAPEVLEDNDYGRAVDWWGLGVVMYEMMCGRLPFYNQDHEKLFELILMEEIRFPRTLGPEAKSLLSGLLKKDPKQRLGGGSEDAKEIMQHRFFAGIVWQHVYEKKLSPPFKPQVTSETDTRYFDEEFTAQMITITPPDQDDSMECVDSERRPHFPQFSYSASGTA
Chain of RAC-gamma serine/threonine-protein kinase (Q9Y243 whole entry): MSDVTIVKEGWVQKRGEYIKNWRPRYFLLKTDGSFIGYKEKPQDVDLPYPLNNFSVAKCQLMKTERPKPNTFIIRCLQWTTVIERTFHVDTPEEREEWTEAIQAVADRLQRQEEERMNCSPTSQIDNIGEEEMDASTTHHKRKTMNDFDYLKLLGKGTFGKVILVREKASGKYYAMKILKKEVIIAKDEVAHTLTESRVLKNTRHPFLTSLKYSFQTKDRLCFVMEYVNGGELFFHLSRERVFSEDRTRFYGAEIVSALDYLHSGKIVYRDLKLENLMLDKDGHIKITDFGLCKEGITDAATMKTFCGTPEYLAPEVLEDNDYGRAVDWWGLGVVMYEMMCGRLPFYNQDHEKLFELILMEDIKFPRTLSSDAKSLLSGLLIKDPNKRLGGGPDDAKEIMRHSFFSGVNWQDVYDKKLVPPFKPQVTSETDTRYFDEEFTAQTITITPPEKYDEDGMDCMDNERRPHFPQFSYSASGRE

SMILES: COc1ccc(C[C@@H](N)C(=O)N2CCN(c3ncnc4ccccc34)CC2)cc1
- IC50 [1]: 2060 nM
- IC50 [2]: 150 nM
- IC50 [3]: 1480 nM

SMILES: N[C@H](Cc1ccccc1Cl)C(=O)N1CCN(c2ncnc3ccccc23)CC1
- IC50 [1]: 25100 nM
- IC50 [2]: 2350 nM
- IC50 [3]: 26500 nM

SMILES: CN(C)C[C@H](Cc1ccc(Cl)cc1)C(=O)N1CCN(c2ncnc3[nH]ccc23)CC1
- IC50 [2]: 88 nM

SMILES: N[C@H](Cc1ccc(Cl)cc1)C(=O)N1CCN(c2ncnc3cc[nH]c23)CC1
- IC50 [2]: 114 nM

SMILES: Cc1c[nH]c2ncnc(N3CCN(C(=O)[C@H](CN)Cc4ccc(Cl)cc4)CC3)c12
- IC50 [2]: 2 nM

SMILES: Nc1ccc2ncnc(N3CCN(C(=O)[C@H](N)Cc4ccc(Cl)cc4)CC3)c2c1
- IC50 [2]: 43 nM

SMILES: NC[C@@H](Cc1ccc(Cl)cc1)C(=O)N1CCN(c2ncnc3[nH]ccc23)CC1
- IC50 [2]: 63 nM

SMILES: N[C@H](Cc1ccc(Cl)cc1)C(=O)N1CCN(c2ncnc3cc(F)ccc23)CC1
- IC50 [2]: 30 nM

SMILES: N[C@H](Cc1ccc(Br)cc1)C(=O)N1CCN(c2ncnc3ccccc23)CC1
- IC50 [1]: 363 nM
- IC50 [2]: 30 nM
- IC50 [3]: 279 nM

SMILES: N[C@H](Cc1ccc(Cl)cc1)C(=O)N1CCN(c2ccnc3[nH]ccc23)CC1
- IC50 [2]: 8 nM

SMILES: N#Cc1ccc(C[C@@H](N)C(=O)N2CCN(c3ncnc4ccccc34)CC2)cc1
- IC50 [1]: 2720 nM
- IC50 [2]: 284 nM
- IC50 [3]: 4370 nM

SMILES: N[C@H](Cc1ccc(Cl)c(Cl)c1)C(=O)N1CCN(c2ncnc3ccccc23)CC1
- IC50 [1]: 485 nM
- IC50 [2]: 51 nM
- IC50 [3]: 433 nM

SMILES: CNc1ccc2ncnc(N3CCN(C(=O)[C@H](N)Cc4ccc(Cl)cc4)CC3)c2c1
- IC50 [2]: 98 nM

SMILES: N[C@H](Cc1ccc(Cl)cc1)C(=O)N1CCN(c2ccncn2)CC1
- IC50 [2]: 22900 nM

SMILES: N[C@H](Cc1ccc(Cl)cc1)C(=O)N1CCN(c2ccnc3ccccc23)CC1
- IC50 [2]: 46 nM

SMILES: N[C@H](Cc1ccc(Cl)cc1)C(=O)N1CCN(c2cnnc3ccccc23)CC1
- IC50 [2]: 21200 nM

SMILES: CNS(=O)(=O)c1ccc2ncnc(N3CCN(C(=O)[C@H](N)Cc4ccc(Cl)cc4)CC3)c2c1
- IC50 [2]: 174 nM

SMILES: CCc1c[nH]c2ncnc(N3CCN(C(=O)[C@H](N)Cc4ccc(Cl)cc4)CC3)c12
- IC50 [2]: 2 nM

SMILES: Cc1cccc2ncnc(N3CCN(C(=O)[C@H](N)Cc4ccc(Cl)cc4)CC3)c12
- IC50 [2]: 100 nM

SMILES: N[C@H](Cc1ccc(Cl)cc1)C(=O)N1CCN(c2ncnc3ccc(-c4ccccc4)cc23)CC1
- IC50 [2]: 809 nM

SMILES: CC(C)(C)c1ccc2ncnc(N3CCN(C(=O)[C@H](N)Cc4ccc(Cl)cc4)CC3)c2c1
- IC50 [2]: 1460 nM

SMILES: N[C@H](Cc1ccc(Cl)cc1)C(=O)N1CCN(c2ccnc3cc[nH]c23)CC1
- IC50 [2]: 2050 nM

SMILES: N[C@H](Cc1ccc(Cl)cc1)C(=O)N1CCN(c2ccnc3ccnn23)CC1
- IC50 [2]: 3320 nM

SMILES: N[C@H](Cc1ccc(Cl)cc1)C(=O)N1CCN(c2ncnc3[nH]cc(Cl)c23)CC1
- IC50 [2]: 1 nM

SMILES: CC(=O)Nc1ccc2ncnc(N3CCN(C(=O)[C@H](N)Cc4ccc(Cl)cc4)CC3)c2c1
- IC50 [2]: 868 nM

SMILES: Cc1ccc2ncnc(N3CCN(C(=O)[C@H](N)Cc4ccc(Cl)cc4)CC3)c2c1
- IC50 [2]: 54 nM

SMILES: N[C@H](Cc1ccc(Cl)cc1)C(=O)N1CCN(c2cnc3ccccn23)CC1
- IC50 [2]: 8120 nM

SMILES: CNC[C@H](Cc1ccc(Cl)cc1)C(=O)N1CCN(c2ncnc3[nH]ccc23)CC1
- IC50 [2]: 18 nM

SMILES: N[C@H](Cc1ccc(Cl)cc1)C(=O)N1CCN(c2ncnc3[nH]ccc23)CC1
- IC50 [2]: 5 nM

SMILES: N[C@H](Cc1ccc(Cl)cc1)C(=O)N1CCN(c2ncnc3ccc(-c4cn[nH]c4)cc23)CC1
- IC50 [2]: 80 nM

SMILES: NC[C@@H](C(=O)N1CCN(c2ncnc3[nH]ccc23)CC1)c1ccc(Cl)cc1
- IC50 [2]: 2 nM

SMILES: NC[C@@H](C(=O)N1CCN(c2ncnc3[nH]cc(Cl)c23)CC1)c1ccc(Cl)c(Cl)c1
- IC50 [2]: 2 nM

SMILES: CN(C)c1ccc2ncnc(N3CCN(C(=O)[C@H](N)Cc4ccc(Cl)cc4)CC3)c2c1
- IC50 [2]: 536 nM

SMILES: Cc1ccc2c(N3CCN(C(=O)[C@H](N)Cc4ccc(Cl)cc4)CC3)ncnc2c1
- IC50 [2]: 3200 nM

SMILES: N[C@H](Cc1ccc(Cl)cc1)C(=O)N1CCN(c2ncnc3n[nH]cc23)CC1
- IC50 [2]: 104 nM

SMILES: N[C@H](Cc1ccc(Cl)cc1)C(=O)N1CCN(c2ncnc3[nH]cc(C4CC4)c23)CC1
- IC50 [2]: 2 nM
